Columns and labels:
[1] = test system: recombinant human CFTR carrying the premature stop codon (PTC) mutation R1162X; test: CFTR-PTC mutant translation readthrough, Nanoluc tagged CFTR luminescence (R1162X cell line); type: cell-based; conditions: for EC50: in combination with G418, 16HBE cells, read-out: CFTR R1162X ACTIVITY EC50; for CFTR R1162X ACTIVITY Fold 10 μM G-418: fold over 10 μM G-418, in combination with G418
Method in brief: (§1)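 16HBE cells stably expressing Nanoluc-tagged human CFTR with G542X or R1162X, in medium with 3 μM VX-809, treated 48 h at 37 °C with compound (10-point, 2-fold, top 50 μM final) alone or with 10 μM G418. Live-cell Nanoluc luminescence normalised to a maximally effective G418 (125-250 μM).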

[2] = test system: recombinant human CFTR carrying the premature stop codon (PTC) mutation G542X; test: CFTR-PTC mutant translation readthrough, Nanoluc tagged CFTR luminescence (G542X cell line); type: cell-based; conditions: in combination with G418, G542X cell line; for EC50: 16HBE cells; for CFTR G542X ACTIVITY Fold 10 μM G-418: fold over 10 μM G-418
Method in brief: as §1

Row | Structure (SMILES) | EC50 [1] | EC50 [2] | CFTR R1162X ACTIVITY Fold 10 μM G-418 [1] | CFTR G542X ACTIVITY Fold 10 μM G-418 [2]
1 | Clc1cccc(Cl)c1COc1cnc(-c2nnn[nH]2)nc1 [5-[(2,6-dichlorophenyl)methoxy]-2-(1H-tetrazol-5-yl)pyrimidine] | > 10 µM | > 10 µM |  | 
2 | Cc1cccc(C(F)(F)F)c1COc1cnc(N2CCNCC2)nc1 [5-{[2-methyl-6-(trifluoromethyl)phenyl]methoxy}-2-(piperazin-1-yl)pyrimidine] | 1 to 10 µM | 1 to 10 µM | A′ (A′ = ≥10X) | A′ (A′ = ≥10X)
3 | O[C@@H]1CN(c2ncc(OCc3c(Cl)cccc3Cl)cn2)C[C@@H]1O [(3R,4S)-1-[5-[(2,6-dichlorophenyl)methoxy]pyrimidin-2-yl]pyrrolidine-3,4-diol] | > 10 µM | 1 to 10 µM | A′ (A′ = ≥10X) | A′ (A′ = ≥10X)
4 | O=C1O[C@H](CO)CN1c1ncc(OCc2c(Cl)cccc2C(F)(F)F)cn1 [(5S)-3-(5-{[2-chloro-6-(trifluoromethyl)phenyl]methoxy}pyrimidin-2-yl)-5-(hydroxymethyl)-1,3-oxazolidin-2-one] | > 10 µM | 1 to 10 µM | C′ (C′ = <5X) | C′ (C′ = <5X)
5 | O=C1Cc2cc(NCc3c(Cl)cccc3Cl)ccc2C(=O)N1 [Compound 303, 6-[(2,6-dichlorophenyl)methylamino]-4H-isoquinoline-1,3-dione] | > 10 µM | > 10 µM |  | 
6 | NCc1nnc(-c2ccc(OCc3c(Cl)cccc3Cl)cc2)o1 [Example 226, [5-[4-[(2,6-dichlorophenyl)methoxy]phenyl]-1,3,4-oxadiazol-2-yl]methanamine] | 1 to 10 µM | 1 to 10 µM | B′ (B′ = ≥5X to <10X) | B′ (B′ = ≥5X to <10X)
7 | NCc1cn(-c2ccc(OCc3c(Cl)cccc3Cl)cc2)cn1 [Example 227, [1-[4-[(2,6-dichlorophenyl)methoxy]phenyl]imidazol-4-yl]methanamine] | 1 to 10 µM | 1 to 10 µM | B′ (B′ = ≥5X to <10X) | B′ (B′ = ≥5X to <10X)
8 | NCc1cc(-c2ccc(OCc3c(Cl)cccc3Cl)cn2)no1 [Example 234, [3-[5-[(2,6-dichlorophenyl)methoxy]-2-pyridyl]isoxazol-5-yl]methanamine] | 1 to 10 µM | < 1 µM | A′ (A′ = ≥10X) | A′ (A′ = ≥10X)
9 | O=C1CN(c2ncc(OCc3c(Cl)cccc3Cl)cn2)C(=O)N1 [Example 323, 1-{5-[(2,6-dichlorophenyl)methoxy]pyrimidin-2-yl}imidazolidine-2,4-dione] | 1 to 10 µM | 1 to 10 µM | C′ (C′ = <5X) | C′ (C′ = <5X)
10 | OCc1cn(-c2ccc(CCc3c(Cl)cccc3Cl)cc2)cn1 [[1-[4-[2-(2,6-dichlorophenyl)ethyl]phenyl]imidazol-4-yl]methanol] | > 10 µM | 1 to 10 µM | A′ (A′ = ≥10X) | B′ (B′ = ≥5X to <10X)
11 | OCc1ncn(-c2ccc(OCc3c(Cl)cccc3Cl)cc2)n1 [[1-[4-[(2,6-dichlorophenyl)methoxy]phenyl]-1,2,4-triazol-3-yl]methanol] | 1 to 10 µM | 1 to 10 µM | A′ (A′ = ≥10X) | A′ (A′ = ≥10X)
12 | OCc1cn(-c2ccc(OCc3c(Cl)cccc3Cl)cc2)cn1 [[1-[4-[(2,6-dichlorophenyl)methoxy]phenyl]imidazol-4-yl]methanol] | 1 to 10 µM | < 1 µM | A′ (A′ = ≥10X) | A′ (A′ = ≥10X)
13 | NCc1ccn(-c2ccc(OCc3c(Cl)cccc3Cl)cc2)n1 [[1-[4-[(2,6-dichlorophenyl)methoxy]phenyl]pyrazol-3-yl]methanamine] | 1 to 10 µM | 1 to 10 µM | A′ (A′ = ≥10X) | B′ (B′ = ≥5X to <10X)
14 | OCc1ccn(-c2ccc(OCc3c(Cl)cccc3Cl)cc2)n1 [[1-[4-[(2,6-dichlorophenyl)methoxy]phenyl]pyrazol-3-yl]methanol] | 1 to 10 µM | < 1 µM | A′ (A′ = ≥10X) | A′ (A′ = ≥10X)
15 | OCc1cnn(-c2ccc(OCc3c(Cl)cccc3Cl)cc2)c1 [[1-[4-[(2,6-dichlorophenyl)methoxy]phenyl]pyrazol-4-yl]methanol] | 1 to 10 µM | 1 to 10 µM | A′ (A′ = ≥10X) | A′ (A′ = ≥10X)
16 | OCc1cn(-c2ccc(OCc3cc(Cl)cc(Cl)c3)cc2)cn1 [[1-[4-[(3,5-dichlorophenyl)methoxy]phenyl]imidazol-4-yl]methanol] | > 10 µM | 1 to 10 µM | C′ (C′ = <5X) | 
17 | OCc1cn(-c2ccc(OCc3c(Cl)cccc3C(F)(F)F)cc2)nn1 [[1-[4-[[2-chloro-6-(trifluoromethyl)phenyl]methoxy]phenyl]triazol-4-yl]methanol] | 1 to 10 µM | 1 to 10 µM | A′ (A′ = ≥10X) | A′ (A′ = ≥10X)

The next lines start with results.

Row | EC50 [1] | EC50 [2] | Structure (SMILES) | CFTR R1162X ACTIVITY Fold 10 μM G-418 [1] | CFTR G542X ACTIVITY Fold 10 μM G-418 [2]
18 | 1 to 10 µM | 1 to 10 µM | COC1CCN(c2ncc(OCc3c(Cl)cccc3Cl)cn2)C1 (stereo not shown) [5-[(2,6-dichlorophenyl)methoxy]-2-(3-methoxypyrrolidin-1-yl)pyrimidine] | B′ (B′ = ≥5X to <10X) | A′ (A′ = ≥10X)
19 | < 1 µM | < 1 µM | Clc1cccc(Cl)c1COc1cnc(-n2cc(-c3ccccn3)nn2)nc1 [5-[(2,6-dichlorophenyl)methoxy]-2-[4-(2-pyridyl)triazol-1-yl]pyrimidine] | A′ (A′ = ≥10X) | A′ (A′ = ≥10X)
20 | 1 to 10 µM | 1 to 10 µM | Clc1cccc(Cl)c1COc1cnc(-n2ncc(-c3ccccn3)n2)nc1 [5-[(2,6-dichlorophenyl)methoxy]-2-[4-(2-pyridyl)triazol-2-yl]pyrimidine] | A′ (A′ = ≥10X) | A′ (A′ = ≥10X)
21 | 1 to 10 µM | 1 to 10 µM | NC(=O)c1ccc(OCc2c(Cl)cccc2Cl)cn1 [5-[(2,6-dichlorophenyl)methoxy]pyridine-2-carboxamide] | B′ (B′ = ≥5X to <10X) | A′ (A′ = ≥10X)
22 | 1 to 10 µM | < 1 µM | FC(F)(F)c1cccc(Cl)c1COc1cnc(-n2cncn2)nc1 [5-[[2-chloro-6-(trifluoromethyl)phenyl]methoxy]-2-(1,2,4-triazol-1-yl)pyrimidine] | A′ (A′ = ≥10X) | A′ (A′ = ≥10X)
23 | 1 to 10 µM | 1 to 10 µM | Cc1cccc(C(F)(F)F)c1COc1cnc(-n2cnnc2)nc1 [5-[[2-methyl-6-(trifluoromethyl)phenyl]methoxy]-2-(1,2,4-triazol-4-yl)pyrimidine] | A′ (A′ = ≥10X) | A′ (A′ = ≥10X)
24 | 1 to 10 µM | > 10 µM | O=c1[nH]ncc2cc(OCc3c(Cl)cccc3Cl)ccc12 [6-[(2,6-dichlorophenyl)methoxy]-2H-phthalazin-1-one] | A′ (A′ = ≥10X) | B′ (B′ = ≥5X to <10X)
25 | 1 to 10 µM | < 1 µM | Clc1cccc(Cl)c1COc1cnc(N2CCC3(CCO3)C2)nc1 (stereo not shown) [7-[5-[(2,6-dichlorophenyl)methoxy]pyrimidin-2-yl]-1-oxa-7-azaspiro[3.4]octane] | A′ (A′ = ≥10X) | A′ (A′ = ≥10X)
26 | 1 to 10 µM | 1 to 10 µM | O[C@H]1CCN(c2ncc(OCc3c(Cl)cccc3Cl)cn2)C1 [(3S)-1-[5-[(2,6-dichlorophenyl)methoxy]pyrimidin-2-yl]pyrrolidin-3-ol] | A′ (A′ = ≥10X) | A′ (A′ = ≥10X)
27 | 1 to 10 µM | 1 to 10 µM | O=C1N[C@@H](CO)CN1c1ncc(OCc2c(Cl)cccc2C(F)(F)F)cn1 [(4R)-1-(5-{[2-chloro-6-(trifluoromethyl)phenyl]methoxy}pyrimidin-2-yl)-4-(hydroxymethyl)imidazolidin-2-one] | C′ (C′ = <5X) | C′ (C′ = <5X)
28 | 1 to 10 µM | 1 to 10 µM | O=C1O[C@@H](CO)CN1c1ccc(OCc2c(Cl)cccc2Cl)cc1 [(5R)-3-[4-[(2,6-dichlorophenyl)methoxy]phenyl]-5-(hydroxymethyl)oxazolidin-2-one] | A′ (A′ = ≥10X) | A′ (A′ = ≥10X)
29 | 1 to 10 µM | 1 to 10 µM | O=C1O[C@H](CO)CN1c1ccc(OCc2c(Cl)cccc2Cl)cc1 [(5S)-3-[4-[(2,6-dichlorophenyl)methoxy]phenyl]-5-(hydroxymethyl)oxazolidin-2-one] | B′ (B′ = ≥5X to <10X) | B′ (B′ = ≥5X to <10X)
30 | 1 to 10 µM | 1 to 10 µM | OCc1cc(-c2ncc(OCc3c(Cl)cccc3Cl)cn2)[nH]n1 [Compound 252, [5-[5-[(2,6-dichlorophenyl)methoxy]pyrimidin-2-yl]-1H-pyrazol-3-yl]methanol] | B′ (B′ = ≥5X to <10X) | A′ (A′ = ≥10X)

Source: US20250228865A1, “COMPOUNDS FOR ENHANCING READ THROUGH OF GENES CONTAINING PREMATURE TERMINATION CODONS AND METHODS FOR MAKING AND USING THE SAME” (Sanofi US Services Inc., priority 2022, published 2025)
